These compounds were tested on HCT116 MTAP-deleted cell lines (assay: Cell viability assay (CellTiter-Glo, 7 days), HCT116 MTAP-deleted). Conditions: Homo sapiens, HCT-116; cell viability assay, HCT116 MTAP-deleted; class symbols; read-out: CC50.
Type: cell-based
Protocol: Control compounds were analyzed in parallel each time for quality control. In Brief, on Day -1, a serial dilution of stock compounds in DMSO was performed using BioMek liquid handlers and dispensed using Echo acoustic dispenser into 384 well plates. Both tool compounds and sample compounds were spotted in the same plate for a dose response of PRMT5 inhibitors. Compound plates were stored as frozen until the cells were ready for seeding. […] After equilibrating the plate in room temperature, the cells were incubated for 7 days inside the sealed incubator set at 37° C. with 90% humidity and 5% CO2. On Day 7, the viability of cells was measured using a CTG assay kit (CellTitre-Glo;Promega cat no. G7573). Shortly, 40 μl per well of luminescent cell viability assay reagent were dispensed using EL460 liquid dispenser 5 μl cassette. CTG luminescence signal was measured using an EnVision plate reader (PerkinElmer) in accordance with manufacturer's instruction. […] Selectivity with * is artificially high due to limited solubility of the compound hampering accurate measurement of WT CC50.

Structure (SMILES) | CC50
Nc1nc2cc(F)c(C(=O)N3CC[C@H]4C[C@@H]3c3ccc(OC(F)(F)F)cc3O4)cc2n2cncc12 (racemic) [Ff-372, Rac-(4-amino-7-fluoroimidazo[1,5-a]quinoxalin-8-yl)((2S,6R)-9-(trifluoromethoxy)-3,4-dihydro-2H-2,6-methanobenzo[b][1,5]oxazocin-5(6H)-yl)methanone] | < 100 nM
Nc1nc2cnc(C(=O)N3CC[C@H]4C[C@@H]3c3ccc(OC(F)(F)F)cc3O4)cc2n2cncc12 (racemic) [Ff-373, Rac-(4-aminoimidazo[1,5-a]pyrido[3,4-e]pyrazin-8-yl)((2S,6R)-9-(trifluoromethoxy)-3,4-dihydro-2H-2,6-methanobenzo[b][1,5]oxazocin-5(6H)-yl)methanone] | < 100 nM
CC1(C)C[C@@H]2Oc3nc(C(F)(F)F)ccc3[C@@H]2N(C(=O)c2cc3c(cc2F)nc(N)c2cncn23)C1 (racemic) [Ff-384, Rac-(4-amino-7-fluoroimidazo[1,5-a]quinoxalin-8-yl)((4aS,9bS)-3,3-dimethyl-7-(trifluoromethyl)-3,4,4a,9b-tetrahydrofuro[2,3-b:4,5-b′]dipyridin-1(2H)-yl)methanone] | < 100 nM
Cc1ncn2c1c(N)nc1cc(F)c(C(=O)N3CC(C)(C)C[C@@H]4Oc5nc(C(F)(F)F)ccc5[C@@H]43)cc12 (racemic) [Ff-385, Rac-(4-amino-7-fluoro-3-methylimidazo[1,5-a]quinoxalin-8-yl)((4aS,9bS)-3,3-dimethyl-7-(trifluoromethyl)-3,4,4a,9b-tetrahydrofuro[2,3-b:4,5-b′]dipyridin-1(2H)-yl)methanone] | < 100 nM
Cc1ncn2c1c(N)nc1cnc(C(=O)N3C[C@H](C)C[C@@H]4CCc5cc(C(F)(F)F)ccc5[C@@H]43)cc12 (racemic) [Ff-462, Rac-(4-amino-3-methylimidazo[1,5-a]pyrido[3,4-e]pyrazin-8-yl)((3R,4aS,10bR)-3-methyl-8-(trifluoromethyl)-3,4,4a,5,6,10b-hexahydrobenzo[h]quinolin-1(2H)-yl)methanone] | 100 to 1000 nM
CN(C(=O)c1cc2c(cc1F)nc(N)c1cncn12)[C@@H]1COc2cc([C@@H]3C[C@H]3c3ccccc3)ccc21 (racemic) [Ff-473, Trans-4-amino-7-fluoro-N-methyl-N-((3S)-6-(2-phenylcyclopropyl)-2,3-dihydrobenzofuran-3-yl)imidazo[1,5-a]quinoxaline-8-carboxamide] | < 100 nM
CN(C(=O)c1cc2c(cc1F)nc(N)c1cncn12)[C@@H]1COc2cc([C@@H]3C[C@H]3C3CC3)ccc21 (racemic) [Ff-474, Trans-N-((3S)-6-([1,1′-bi(cyclopropan)]-2-yl)-2,3-dihydrobenzofuran-3-yl)-4-amino-7-fluoro-N-methylimidazo[1,5-a]quinoxaline-8-carboxamide] | < 100 nM
CN(C(=O)c1cc2c(cc1F)nc(N)c1cncn12)[C@@H]1COc2cc(C3CCOC3)ccc21 (mixture of isomers) [Ff-484, Rac-4-amino-7-fluoro-N-methyl-N-((3S)-6-(tetrahydrofuran-3-yl)-2,3-dihydrobenzofuran-3-yl)imidazo[1,5-a]quinoxaline-8-carboxamide] | < 100 nM
Cc1ncc2c(N)nc3cnc(C(=O)N4C(C)CCC5Oc6cc(C(F)(F)F)ccc6C54)cc3n12 (racemic) [Ff-586, Rac-(4-amino-1-methylimidazo[1,5-a]pyrido[3,4-e]pyrazin-8-yl)(2-methyl-7-(trifluoromethyl)-3,4,4a,9b-tetrahydrobenzofuro[3,2-b]pyridin-1(2H)-yl)methanone] | < 100 nM
Cc1ncn2c1c(N)nc1cnc(C(=O)N3C[C@H](F)CC4Oc5cc(C(F)(F)F)ccc5C43)cc12 (mixture of isomers) [Ff-650, Rac-(4-amino-3-methylimidazo[1,5-a]pyrido[3,4-e]pyrazin-8-yl)((3R,4aS,9bS)-3-fluoro-7-(trifluoromethyl)-3,4,4a,9b-tetrahydrobenzofuro[3,2-b]pyridin-1(2H)-yl)methanone] | < 100 nM
Nc1nc2cnc(C(=O)N3CC4(CCC4)C[C@@H]4Oc5cc(C(F)(F)F)ccc5[C@@H]43)cc2n2cncc12 (racemic) [Ff-688, Rac-(4-aminoimidazo[1,5-a]pyrido[3,4-e]pyrazin-8-yl)((4aS,9bS)-7-(trifluoromethyl)-4a,9b-dihydro-2H-spiro[benzofuro[3,2-b]pyridine-3,1′-cyclobutan]-1(4H)-yl)methanone] | < 100 nM
Cc1ncn2c1c(N)nc1cc(Cl)c(C(=O)N3CCC[C@@H]4Oc5nc(C(F)(F)F)ccc5[C@@H]43)cc12 (racemic) [Fg-29, Rac-(4-amino-7-chloro-3-methylimidazo[1,5-a]quinoxalin-8-yl)((4aS,9bS)-7-(trifluoromethyl)-3,4,4a,9b-tetrahydrofuro[2,3-b:4,5-b′]dipyridin-1(2H)-yl)methanone] | < 100 nM
Nc1nc2cc(F)c(C(=O)N3CCO[C@@H]4CCc5ccccc5[C@@H]43)cc2n2cncc12 (relative stereo) [Ff-427, cis-2,3,4a,5,6,10b-hexahydrobenzo[f][1,4]benzoxazin-1-yl-(4-amino-7-fluoro-imidazo[1,5-a]quinoxalin-8-yl)methanone] | 100 to 1000 nM

Same assay, conditions: Homo sapiens, HCT-116; cell viability, HCT116 MTAP-deleted; class symbols; read-out: CC50

Structure (SMILES) | CC50
Nc1nc2cnc(C(=O)N3CCC[C@@H]4Oc5cc(OC(F)(F)F)c(F)cc5[C@@H]43)cc2n2cncc12 (racemic) [Ff-338, Rac-(4-aminoimidazo[1,5-a]pyrido[3,4-e]pyrazin-8-yl)((4aS,9bS)-8-fluoro-7-(trifluoromethoxy)-3,4,4a,9b-tetrahydrobenzofuro[3,2-b]pyridin-1(2H)-yl)methanone] | < 100 nM
Nc1nc2ccc(C(=O)N3CCC[C@@H]4Oc5cc(OC(F)(F)F)c(F)cc5[C@@H]43)cc2n2cncc12 (racemic) [Ff-339, Rac-(4-aminoimidazo[1,5-a]quinoxalin-8-yl)((4aS,9bS)-8-fluoro-7-(trifluoromethoxy)-3,4,4a,9b-tetrahydrobenzofuro[3,2-b]pyridin-1(2H)-yl)methanone] | < 100 nM
Nc1nc2cc(F)c(C(=O)N3CCC[C@@H]4Oc5cc(OC(F)(F)F)cc(F)c5[C@@H]43)cc2n2cncc12 (racemic) [Ff-350, Rac-(4-amino-7-fluoroimidazo[1,5-a]quinoxalin-8-yl)((4aS,9bS)-9-fluoro-7-(trifluoromethoxy)-3,4,4a,9b-tetrahydrobenzofuro[3,2-b]pyridin-1(2H)-yl)methanone] | < 100 nM
Nc1nc2cc(F)c(C(=O)N3CCO[C@H]4Cc5cc(Br)ccc5[C@H]43)cc2n2cncc12 (single isomer, unassigned) [Ff-75] | 100 to 1000 nM
Nc1nc2cc(F)c(C(=O)N3CCO[C@@H]4Cc5cc(Br)ccc5[C@@H]43)cc2n2cncc12 (single isomer, unassigned) [Ff-76] | < 100 nM
C[C@@H]1CN(C(=O)c2cc3c(cc2F)nc(N)c2cncn23)[C@H]2c3ccc(C(F)(F)F)cc3C[C@H]2O1 (single isomer, unassigned) [Ff-77] | < 100 nM
C[C@@H]1CN(C(=O)c2cc3c(cc2F)nc(N)c2cncn23)[C@@H]2c3ccc(C(F)(F)F)cc3C[C@@H]2O1 (single isomer, unassigned) [Ff-78] | < 100 nM
C[C@H]1CN(C(=O)c2cc3c(cc2F)nc(N)c2cncn23)[C@@H]2c3ccc(C(F)(F)F)cc3C[C@@H]2O1 (single isomer, unassigned) [Ff-80] | < 100 nM
Nc1nc2cc(F)c(C(=O)N3CCO[C@H]4Cc5cc(C(F)(F)F)ccc5[C@H]43)cc2n2cncc12 (single isomer, unassigned) [Ff-83] | 100 to 1000 nM

From patent US12448388B2, “PRMT5 inhibitors and uses thereof” (Gilead Sciences, Inc., priority 2023, dated 2025)
